Literature values as cited in PMC4682187, “Fusarinine C, a novel siderophore‐based bifunctional chelator for radiolabeling with Gallium‐68” (Journal of Labelled Compounds & Radiopharmaceuticals, 2015).

Columns and labels:
[1] = dilution of DFO; at nanomolar level (<50 nM) DFO does not act as a good chelating agent for gallium
Text: Caraco et al. reported that dilution of DFO, an acyclic analogue of FSC, could cause the breakdown of the ^67Ga^3+–DFO complex.

[2] = ^68Ga complex of TAFC
Text: To evaluate this hypothesis, a RGD peptide targeting the ...

Row | Stability of the complex on dilution [1] | Metabolic stability [2] | Structure (SMILES)
1 | breakdown |  | CC(=O)N(O)CCCCCNC(=O)CCC(=O)N(O)CCCCCNC(=O)CCC(=O)N(O)CCCCCN [^67Ga^3+–DFO complex, desferoxamine B, metal not drawn]
2 |  | excellent metabolic stabilities | CC(=O)NC1CCCN(O)C(=O)/C=C(/C)CCOC(=O)C(NC(C)=O)CCCN(O)C(=O)/C=C(/C)CCOC(=O)C(NC(C)=O)CCCN(O)C(=O)/C=C(/C)CCOC1=O (centres unmarked) [TAFC, triacetylfusarinine]
